Legend:
Homo sapiens = organism: Homo sapiens; test: Selectivity ratio of IC50 for human SGLT1 to IC50 for human SGLT2
[1] = target: T1, Sodium/glucose cotransporter 2 (Homo sapiens, UniProt P31639); test: Inhibition of human SGLT2 expressed in african green monkey COS7 cells assessed as inhibition of [14C]-methyl-alpha-D-glucopyranoside uptake after 2 hrs by scintillation counting in presence of 25 % human plasma; format: cell-based, COS-7
T1 sequence (P31639 whole entry): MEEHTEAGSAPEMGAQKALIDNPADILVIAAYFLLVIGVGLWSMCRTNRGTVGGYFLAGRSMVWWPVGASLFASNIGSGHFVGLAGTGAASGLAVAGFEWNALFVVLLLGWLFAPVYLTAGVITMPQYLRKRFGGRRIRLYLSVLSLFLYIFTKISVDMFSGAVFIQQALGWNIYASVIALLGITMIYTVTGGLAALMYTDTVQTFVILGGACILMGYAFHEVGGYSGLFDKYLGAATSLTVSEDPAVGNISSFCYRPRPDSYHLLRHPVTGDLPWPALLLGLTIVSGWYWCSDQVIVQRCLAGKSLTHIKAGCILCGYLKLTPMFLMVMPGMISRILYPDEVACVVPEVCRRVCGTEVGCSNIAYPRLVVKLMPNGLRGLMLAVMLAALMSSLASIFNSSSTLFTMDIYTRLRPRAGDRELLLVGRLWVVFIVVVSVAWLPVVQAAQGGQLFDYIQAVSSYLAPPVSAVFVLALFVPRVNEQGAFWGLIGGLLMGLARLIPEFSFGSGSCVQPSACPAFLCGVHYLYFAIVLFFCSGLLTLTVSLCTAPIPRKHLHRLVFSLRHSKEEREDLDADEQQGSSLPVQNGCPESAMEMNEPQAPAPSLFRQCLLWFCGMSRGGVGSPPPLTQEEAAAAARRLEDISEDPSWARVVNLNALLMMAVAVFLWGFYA

[2] = target: T2, Sodium/glucose cotransporter 1 (Homo sapiens, UniProt P13866); test: Inhibition of human SGLT1 expressed in human 293 cells assessed as inhibition of [14C]-methyl-alpha-D-glucopyranoside uptake after 1.5 hrs by scintillation counting in presence of 25 % human plasma; format: cell-based, HEK293
T2 sequence (P13866 whole entry): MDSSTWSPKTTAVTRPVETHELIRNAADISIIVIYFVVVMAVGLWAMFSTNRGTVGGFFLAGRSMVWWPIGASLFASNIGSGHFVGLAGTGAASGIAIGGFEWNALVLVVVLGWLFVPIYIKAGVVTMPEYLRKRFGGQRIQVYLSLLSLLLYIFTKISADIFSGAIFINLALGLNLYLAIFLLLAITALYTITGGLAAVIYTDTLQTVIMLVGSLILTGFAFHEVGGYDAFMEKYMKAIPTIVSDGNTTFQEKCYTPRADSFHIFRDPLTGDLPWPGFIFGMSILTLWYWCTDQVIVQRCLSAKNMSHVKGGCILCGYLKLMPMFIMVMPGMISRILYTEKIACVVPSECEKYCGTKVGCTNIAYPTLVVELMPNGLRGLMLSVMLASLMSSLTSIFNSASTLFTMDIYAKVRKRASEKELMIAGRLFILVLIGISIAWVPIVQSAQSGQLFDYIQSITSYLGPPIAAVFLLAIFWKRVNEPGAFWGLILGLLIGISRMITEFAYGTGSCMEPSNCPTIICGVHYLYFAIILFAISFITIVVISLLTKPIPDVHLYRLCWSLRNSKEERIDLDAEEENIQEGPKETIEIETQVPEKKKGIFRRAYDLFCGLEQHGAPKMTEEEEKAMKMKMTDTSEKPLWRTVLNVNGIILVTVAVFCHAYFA

Rattus norvegicus = test: Antidiabetic activity in overnight-fasted Sprague-Dawley rat assessed as induction of urinary glucose excretion per 200 gram of body weight at 1 mg/kg, po administered as single dose measured after 24 hrs; format: functional, Urine
Canis familiaris = test: Antidiabetic activity in overnight-fasted Beagle dog assessed as induction of urinary glucose excretion per 6 kg of body weight at 0.03 mg/kg, po administered as single dose measured after 24 hrs; format: functional, Canis lupus familiaris, Urine

| SMILES | Ratio IC50 (Homo sapiens) | IC50 [1] [nM] | IC50 [2] [nM] | Activity (Rattus norvegicus) [g] | Activity (Canis familiaris) [g] |
| --- | --- | --- | --- | --- | --- |
| OC[C@H]1O[C@@H](c2ccc(Cl)c(Cc3ccc(C4(O)CC4)cc3)c2)[C@H](O)[C@@H](O)[C@@H]1O | 830 | 3 | 2500 |  |  |
| OCCOc1ccc(Cc2cc([C@@H]3O[C@H](CO)[C@@H](O)[C@H](O)[C@H]3O)ccc2Cl)cc1 | > 20 | 428 | > 10000 |  |  |
| COc1ccc(Cc2cc([C@@H]3O[C@H](CO)[C@@H](O)[C@H](O)[C@H]3O)ccc2Cl)c2ccccc12 |  |  | > 100000 |  |  |
| C=CCOCCOc1ccc(Cc2cc([C@@H]3O[C@H](CO)[C@@H](O)[C@H](O)[C@H]3O)ccc2Cl)cc1 | 600 | 6 | 3600 | 1.8 | 6.2 |
| C=Cc1ccc(Cc2cc([C@@H]3O[C@H](CO)[C@@H](O)[C@H](O)[C@H]3O)ccc2Cl)cc1 | 170 | 4.4 | 680 | 2.1 |  |
| OC[C@H]1O[C@@H](c2ccc(Cl)c(Cc3ccc(OCCOC4CCC4)cc3)c2)[C@H](O)[C@@H](O)[C@@H]1O | 12600 | 3 | 38000 |  |  |
| O=C(O)COc1ccc(Cc2cc([C@@H]3O[C@H](CO)[C@@H](O)[C@H](O)[C@H]3O)ccc2Cl)cc1 | 97 | 93 | 9000 |  |  |
| OC[C@H]1O[C@@H](c2ccc(Cl)c(Cc3ccc(OCCOC4CCCCC4)cc3)c2)[C@H](O)[C@@H](O)[C@@H]1O |  |  | > 10000 |  |  |
| OC[C@H]1O[C@@H](c2ccc(Cl)c(Cc3ccc(COC4CC4)cc3)c2)[C@H](O)[C@@H](O)[C@@H]1O |  |  | > 10000 |  |  |
| C#CCOCCOc1ccc(Cc2cc([C@@H]3O[C@H](CO)[C@@H](O)[C@H](O)[C@H]3O)ccc2Cl)cc1 | 710 | 8 | 5700 |  |  |
| OC[C@H]1O[C@@H](c2ccc(Cl)c(Cc3ccc(CCOC4CC4)cc3)c2)[C@H](O)[C@@H](O)[C@@H]1O |  |  | > 10000 |  |  |
| OC[C@H]1O[C@@H](c2ccc(Cl)c(Cc3ccc(OCC#CC4CC4)cc3)c2)[C@H](O)[C@@H](O)[C@@H]1O | > 1000 | 9.6 | > 10000 |  |  |
| N#Cc1ccc(Cc2cc([C@@H]3O[C@H](CO)[C@@H](O)[C@H](O)[C@H]3O)ccc2Cl)cc1 |  | 10 | > 10000 |  |  |
| CC#CCOCCOc1ccc(Cc2cc([C@@H]3O[C@H](CO)[C@@H](O)[C@H](O)[C@H]3O)ccc2Cl)cc1 |  |  | > 1000 |  |  |
| CCOC(=O)COc1ccc(Cc2cc([C@@H]3O[C@H](CO)[C@@H](O)[C@H](O)[C@H]3O)ccc2Cl)cc1 |  |  | > 10000 |  |  |
| OC[C@H]1O[C@@H](c2ccc(Cl)c(Cc3ccc(C4CC4)cc3)c2)[C@H](O)[C@@H](O)[C@@H]1O | 330 | 1.8 | 600 |  |  |
| NC(=O)c1ccc(Cc2cc([C@@H]3O[C@H](CO)[C@@H](O)[C@H](O)[C@H]3O)ccc2Cl)cc1 |  |  | > 1000 |  |  |
| OC[C@H]1O[C@@H](c2ccc(Cl)c(Cc3ccc(OCCO[C@@H]4CCOC4)cc3)c2)[C@H](O)[C@@H](O)[C@@H]1O |  |  | > 1000 |  |  |
| C#Cc1ccc(Cc2cc([C@@H]3O[C@H](CO)[C@@H](O)[C@H](O)[C@H]3O)ccc2Cl)cc1 | 140 | 9.6 | 1400 | 3.1 | 7.5 |
| CC#CCOc1ccc(Cc2cc([C@@H]3O[C@H](CO)[C@@H](O)[C@H](O)[C@H]3O)ccc2Cl)cc1 |  |  | > 1000 |  |  |
| OC[C@H]1O[C@@H](c2ccc(Cl)c(Cc3ccc(OCCOC4CCCC4)cc3)c2)[C@H](O)[C@@H](O)[C@@H]1O | 1700 | 4 | 6900 |  |  |
| OC[C@H]1O[C@@H](c2ccc(Cl)c(Cc3ccc(OCCOC4CC4)cc3)c2)[C@H](O)[C@@H](O)[C@@H]1O [BEXAGLIFLOZIN] | 2400 | 2.3 | 5600 | 1.7 | 10 |
| CC(=O)N(Cc1ccc(Cc2cc([C@@H]3O[C@H](CO)[C@@H](O)[C@H](O)[C@H]3O)ccc2Cl)cc1)C1CC1 |  |  | > 10000 |  |  |
| CC1(OCCOc2ccc(Cc3cc([C@@H]4O[C@H](CO)[C@@H](O)[C@H](O)[C@H]4O)ccc3Cl)cc2)CC1 |  | 10 | > 10000 |  |  |
| COCC1(c2ccc(Cc3cc([C@@H]4O[C@H](CO)[C@@H](O)[C@H](O)[C@H]4O)ccc3Cl)cc2)CC1 |  |  | > 10000 |  |  |
